Measured values reported in US20260078108A1, “SOLID FORMS OF A ROCK INHIBITOR” (REDX PHARMA PLC, priority 2022, published 2026).
Values after ≈ are worked out from the molar mass of the structure shown. Counter-ions that a name gives are not always drawn.

How the values were obtained:
[1] = Solubility testing in water, SGF, FaSSIF, FeSSIF at 37° C.; assay type: physicochemical; conditions: for Solubility / Solubility (mg/mL): 37° C.
Method: About 15 mg of sample was weighed into each sample vial and then 3.0 mL of water, simulated gastric fluid (SGF), Fasted State Simulated Intestinal Fluid (FaSSIF) or Fed State Simulated Intestinal Fluid (FeSSIF) media was added. Samples were prepared in triplicate for each media. The suspensions were kept shaking at 37° C. for up to 24 h. At 0.5, 2 and 24 h, suspensions were filtered and the filtrate was analyzed by HPLC.

[2] = 7-day stability testing of solid forms (HPLC purity, XRPD); assay type: physicochemical
Method: About 10 mg of freebase Form I, HCl salt Form II, Succinate Form I and received HCl salt Form I were placed at 60° C./capped and 40° C./75% RH (open), respectively. Samples were prepared in duplicate for each condition. At day 0 and day 7, the samples were analyzed by HPLC and XRPD to check the purity and crystal form, respectively.

[3] = FaSSIF (pH of media 6.5), 0.5 h
[4] = FeSSIF (pH of media 5.0), 0.5 h
[5] = pH of sample in FaSSIF (pH of media 6.5), 0.5 h
[6] = pH of sample in FaSSIF (pH of media 6.5), 2 h
[7] = pH of sample in FaSSIF (pH of media 6.5), 24 h
[8] = pH of sample in FeSSIF (pH of media 5.0), 0.5 h
[9] = pH of sample in FeSSIF (pH of media 5.0), 2 h
[10] = pH of sample in FeSSIF (pH of media 5.0), 24 h
[11] = pH of sample in SGF (pH of media 1.2), 0.5 h
[12] = pH of sample in SGF (pH of media 1.2), 2 h
[13] = pH of sample in SGF (pH of media 1.2), 24 h
[14] = pH of sample in Water (pH of media 7.9), 0.5 h
[15] = pH of sample in Water (pH of media 7.9), 2 h
[16] = pH of sample in Water (pH of media 7.9), 24 h
[17] = Day 7, 40° C./75% RH (open), HPLC

SMILES | Solubility [1, 3] [µg/mL] | Solubility ([1]; FaSSIF (pH of media 6.5), 2 h) [µg/mL] | Solubility [1, 4] [µg/mL] | Solubility ([1]; FeSSIF (pH of media 5.0), 2 h) [µg/mL] | Solubility ([1]; FeSSIF (pH of media 5.0), 24 h) [µg/mL] | Solubility ([1]; SGF (pH of media 1.2), 0.5 h) [µg/mL] | Solubility ([1]; SGF (pH of media 1.2), 2 h) [µg/mL] | Solubility ([1]; SGF (pH of media 1.2), 24 h) [µg/mL] | pH [1, 5] | pH [1, 6] | pH [1, 7] | pH [1, 8] | pH [1, 9] | pH [1, 10] | pH [1, 11] | pH [1, 12] | pH [1, 13] | pH [1, 14] | pH [1, 15] | pH [1, 16] | other results
NCc1ccc(C(=O)Nc2ccncc2F)cc1-c1cccc(C(=O)Nc2ccc(SC[C@H]3CCOC3=O)cc2)c1 (stereo in doubt) [HCl salt Form I] | 23 | 5 | 83 | 91 | 66 | 780 | 841 | 1355 | 6.4 | 6.4 | 6.4 | 4.9 | 4.9 | 4.9 | 1.4 | 1.4 | 1.4 | 5.6 | 5.7 | 5.8 | Solubility (mg/mL) ([1]; FaSSIF (pH of media 6.5), 24 h): <LOD; Solubility ([1]; Water (pH of media 7.9), 0.5 h): 680 µg/mL; Solubility ([1]; Water (pH of media 7.9), 2 h): 771 µg/mL; Solubility ([1]; Water (pH of media 7.9), 24 h): 1411 µg/mL
NCc1ccc(C(=O)Nc2ccncc2F)cc1-c1cccc(C(=O)Nc2ccc(SC[C@H]3CCOC3=O)cc2)c1 [Freebase Form I] | 14 (≈ 24.5 µM) | 6 (≈ 10.5 µM) | 183 (≈ 321 µM) | 126 (≈ 221 µM) | 59 (≈ 103 µM) | ~5000 (≈ 8760 µM) | ~5000 (≈ 8760 µM) | ~5000 (≈ 8760 µM) | 6.4 | 6.4 | 6.5 | 5.0 | 5.0 | 5.0 | 1.2 | 1.4 | 1.4 | 7.9 | 7.6 | 8.7 | Purity (area %) ([2]; Day 0, HPLC): 96.89 area %; Decrease in purity versus Day 0 ([2]; Day 7, 40° C./75% RH (open)): 3.0 area %; XRPD (crystal form) ([2]; Day 7, 40° C./75% RH (open)): No change; Purity (area %) [2, 17]: 93.87 area %; Decrease in purity versus Day 0 ([2]; Day 7, 60° C./capped): 1.9 area %; XRPD (crystal form) ([2]; Day 7, 60° C./capped): No change; Purity (area %) ([2]; Day 7, 60° C./capped, HPLC): 95.01 area %; Solubility ([1]; FaSSIF (pH of media 6.5), 24 h): 1 µg/mL (≈ 1.75 µM); Solubility (mg/mL) ([1]; Water (pH of media 7.9), 0.5 h): <LOD; Solubility (mg/mL) ([1]; Water (pH of media 7.9), 2 h): <LOD; Solubility (mg/mL) ([1]; Water (pH of media 7.9), 24 h): <LOD
NCc1ccc(C(=O)Nc2ccncc2F)cc1-c1cccc(C(=O)Nc2ccc(SC[C@H]3CCOC3=O)cc2)c1 [HCl salt Form I] | – | – | – | – | – | – | – | – | – | – | – | – | – | – | – | – | – | – | – | – | Purity (area %) ([2]; Day 0, HPLC, listed as HCI salt Form I): 97.62 area %; XRPD (crystal form) ([2]; Day 7, 40° C./75% RH (open)): No change; Purity (area %) ([2]; Day 7, 40° C./75% RH (open), HPLC, listed as HCI salt Form I): 97.62 area %; XRPD (crystal form) ([2]; Day 7, 60° C./capped): No change; Purity (area %) ([2]; Day 7, 60° C./capped, HPLC, listed as HCI salt Form I): 97.61 area %
NCc1ccc(C(=O)Nc2ccncc2F)cc1-c1cccc(C(=O)Nc2ccc(SC[C@H]3CCOC3=O)cc2)c1 [Succinate Form I] | 5 | 2 | 188 | 173 | 46 | 3837 | 3826 | 4005 | 5.7 | 5.7 | 5.6 | 4.8 | 4.8 | 4.8 | 1.3 | 1.4 | 1.3 | 4.3 | 4.2 | 4.1 | Purity (area %) ([2]; Day 0, HPLC): 97.46 area %; Decrease in purity versus Day 0 ([2]; Day 7, 40° C./75% RH (open)): 0.2 area %; XRPD (crystal form) ([2]; Day 7, 40° C./75% RH (open)): No change; Purity (area %) [2, 17]: 97.29 area %; Decrease in purity versus Day 0 ([2]; Day 7, 60° C./capped): 0.5 area %; XRPD (crystal form) ([2]; Day 7, 60° C./capped): No change; Purity (area %) ([2]; Day 7, 60° C./capped, HPLC): 96.98 area %; Solubility ([1]; FaSSIF (pH of media 6.5), 24 h): 1 µg/mL; Solubility in SGF (in words) ([1]; SGF, comparison with HCl Salt Form 1): more soluble in SGF than HCl Salt Form 1; Solubility ([1]; Water (pH of media 7.9), 2 h): 328 µg/mL; Solubility ([1]; Water (pH of media 7.9), 24 h): 546 µg/mL; solubility at 0.5 h ([1]; water, 37 °C, pH 7.9, water, thermodynamic from solid, Water (pH of media 7.9), 0.5 h): 363 µg/mL
